Results from patent publication EP4342530A1, “SORTILIN MODULATORS” (Insusense ApS, priority 2022, dated 2024).

Columns and labels:
[1] = target: T1, h-Sortilin (Homo sapiens, UniProt Q99523); assay: Neurotensin scintillation proximity assay (displacement of [3H]-neurotensin binding); conditions: 150 nM 6his-Sortilin, 5 nM [3H]-Neurotensin; average of at least 2 determinations; read-out: IC50 [3H]Neurotensin SPA
T1 sequence (Q99523 78-831): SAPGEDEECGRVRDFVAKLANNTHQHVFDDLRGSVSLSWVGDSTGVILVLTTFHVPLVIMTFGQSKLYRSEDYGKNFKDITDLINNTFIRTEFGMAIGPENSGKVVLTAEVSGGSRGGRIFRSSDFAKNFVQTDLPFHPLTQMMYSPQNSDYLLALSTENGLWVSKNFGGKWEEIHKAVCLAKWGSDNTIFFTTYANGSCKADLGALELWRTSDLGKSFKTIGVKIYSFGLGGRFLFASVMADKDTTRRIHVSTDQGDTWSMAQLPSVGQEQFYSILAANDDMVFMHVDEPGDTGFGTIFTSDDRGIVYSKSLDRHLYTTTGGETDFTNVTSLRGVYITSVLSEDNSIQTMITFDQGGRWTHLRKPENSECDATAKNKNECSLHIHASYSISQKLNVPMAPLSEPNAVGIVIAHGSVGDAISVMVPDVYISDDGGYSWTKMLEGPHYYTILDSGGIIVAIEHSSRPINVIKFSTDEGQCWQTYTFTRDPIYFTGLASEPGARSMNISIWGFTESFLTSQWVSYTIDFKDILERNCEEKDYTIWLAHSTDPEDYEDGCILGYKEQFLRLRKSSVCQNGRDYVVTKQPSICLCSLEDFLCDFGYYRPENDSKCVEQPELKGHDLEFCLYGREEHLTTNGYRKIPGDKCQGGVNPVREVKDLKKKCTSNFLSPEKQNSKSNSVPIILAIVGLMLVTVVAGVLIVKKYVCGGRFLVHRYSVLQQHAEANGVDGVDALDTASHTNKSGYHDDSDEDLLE
Method in brief: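 Compounds pre-incubated 30 min at room temperature with 150 nM 6His-sortilin in HEPES pH 7.4 buffer with NaCl, CaCl2, BSA and Tween-20, then 5 nM [3H]-neurotensin and Ni chelate SPA beads added; read after 6 h. IC50 from 8-point variable-slope fits, mean of at least 2 determinations.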

[2] = Brain homogenate binding by rapid equilibrium dialysis, rat brain; assay type: in vitro ADME; conditions: pH 7.4, 37 °C, dilution factor 5, read-out: Unbound (Fu, %)
Procedure: (§1) Plasma protein binding and brain homogenate binding for study compounds in mouse, dog, and rat by rapid equilibrium dialysis
(§2) In practice, unbound fractions in plasma and brain tissue were assessed using rapid equilibrium dialysis in vitro. Separately a pharmacokinetic study was run in vivo whereby a dose of the compound of interest was given at T=0 hours and at subsequent timepoints (eg 0.5, 1 and 4 hours) plasma and separately brain samples were analysed for total concentration of the compound of interest. These total concentrations could then be adjusted with the unbound fraction to give the unbound concentrations in the plasma and brain.
(§3) The test compounds were incubated in plasma and brain homogenate from the relevant species at 37 °C in RED device with inserts (8K MWCO, Thermo scientific) for 4 hours at 5 µM in triplicates. 350 µL of 150 mM phosphate buffered saline (PBS, pH 7.4) was used as the receiver side solutions. […] After 10-minute centrifugation at 13 200 rpm, the sample supernatants were analysed with an LC-MS/MS, to obtain the unbound fraction of the test compound (Fub). The unbound fraction was calculated from the peak area ratios obtained for each matrix: Fub = CPBS /Cplasma; [formula] where CPBS and Cplasma are the analyte concentrations in PBS (receiver) and plasma (donor), respectively. […]

[3] = Plasma protein binding by rapid equilibrium dialysis, dog plasma; assay type: in vitro ADME
Procedure: as §1, §2, §3

[4] = Blood-brain-barrier permeability in mice after IV administration; conditions: male, CD1 (ICR), mouse, intravenous, 3 mg/kg
Procedure: The compound is administered to the animal in a suitable vehicle at T=0 hours. At 0.5 hours post administration plasma and separately brain are removed, prepared and analysed for total compound concentration.
Temperature: 45 °C Injection Volume: 1.5 µl for brain, 4 µl for plasma Ion Source: ESI+, SRM detection
The unbound partition coefficient (Kpuu) was determined as a ratio between the free compound concentrations in plasma and brain: Kpuu = (Cub,brain)/(Cub,plasma) [formula]
Where Cu,brain = unbound concentration in brain (C × Fub, brain); wherein • C = concentration at steady state; and • Cub,plasma = unbound concentration in plasma (C × Fub).

Row | IC50 [1] | fraction unbound at 4 h, 5 µM [2] | %Fuplasma ([3]; dog plasma, as used for the Kpuu calculation) | fraction unbound at 4 h, 5 µM ([3]; pH 7.4, Dog plasma, 5 µM, 4 hours, 37 °C, read-out: Unbound (Fu, %)) | concentration at 0.5 h ([4]; brain) | Kp at 0.5 h ([4]; brain/plasma) | concentration at 0.5 h ([4]; plasma) | Compound
1 | 230 nM | 0.371 | 55% | 0.555 | 61.2 ng/g | 0.21 | 292 ng/mL | CC(C)(C)CC[C@H](NCc1ccc2c(c1)COCC2)C(=O)O [Example 3, (S)-2-((isochroman-7-ylmethyl)amino)-5,5-dimethylhexanoic acid]
2 | 210 nM | – | – | – | – | – | – | C[C@@H](N[C@@H](CCC(C)(C)C)C(=O)O)c1ccc2c(c1)OCCC2 [Example 9]
3 | 230 nM | – | – | – | – | – | – | C[C@H](N[C@@H](CCC(C)(C)C)C(=O)O)c1ccc2c(c1)CCCO2 [Example 50]
4 | 260 nM | – | – | – | – | – | – | C[C@@H](N[C@@H](CCC(C)(C)C)C(=O)O)c1ccc2c(c1)CCCO2 [Example 52]
